Consider 12 compounds from patent US6884810B2, “Benzimidazole derivatives” (Zeria Pharmaceutical Co., Ltd., priority 2001, dated 2005).

T1 sequence (P33261 whole entry): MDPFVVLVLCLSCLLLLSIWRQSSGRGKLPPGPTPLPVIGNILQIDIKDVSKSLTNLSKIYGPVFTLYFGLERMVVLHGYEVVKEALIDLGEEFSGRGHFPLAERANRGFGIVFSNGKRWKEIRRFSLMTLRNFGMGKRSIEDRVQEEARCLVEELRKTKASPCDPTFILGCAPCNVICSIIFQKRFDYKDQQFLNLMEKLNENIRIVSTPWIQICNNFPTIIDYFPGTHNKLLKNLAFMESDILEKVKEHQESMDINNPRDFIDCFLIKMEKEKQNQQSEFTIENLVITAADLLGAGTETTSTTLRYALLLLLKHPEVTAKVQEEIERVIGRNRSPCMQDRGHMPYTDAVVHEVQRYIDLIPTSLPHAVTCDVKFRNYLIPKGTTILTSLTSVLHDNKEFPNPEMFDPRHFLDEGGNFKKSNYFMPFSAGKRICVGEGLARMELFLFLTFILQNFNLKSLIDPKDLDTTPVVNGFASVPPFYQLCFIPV

This series has as its target T1, CYP2C19 (Homo sapiens, UniProt P33261).
T1 construct: purchased Sumitomo Chemical Co., Ltd; host or cells: yeast (microsomes)
The series can be described thus: Human CYP2C19 activity inhibition test (S-(+)-mephenytoin to 4'-hydroxymephenytoin). Format: in vitro ADME. To be noted: human, pH 7.4, probe S-(+)-mephenytoin (to 4'-hydroxymephenytoin), test compound 10 μM; human CYP2C19 yeast expression system microsome; 4'-hydroxymephenytoin generated vs control; read-out: CYP2C19 residual activity (%). Here is the method:
(Human CYP2C19 Activity Inhibition Test)
CYP2C19 specifically participates in the metabolism reaction from S-(+)-mephenytoin to 4′-hydroxymephenytoin. Therefore, by use of an expression system CYP2C19, the production amount (concentration) of 4′-hydroxymephenytoin, serving as an index for CYP2C19 activity, was determined, whereby the inhibitory action of respective test substances was investigated.
(a) Metabolizing Activity Test
A solution of S-(+)-mephenytoin in methanol (125 μmol/L, 50 μL) and a solution of a test substance in methanol (25 μmol/L, 0, 10, 100, or 200 μL) were placed in a 10-mL glass test tube. The solvent was removed under a nitrogen gas at 40° C. A 75 μL mixture of 0.5M phosphate buffer (pH 7.4)-0.5 mM EDTA (20:10), 140 μL purified water, and 10 μL human CYP2C19 yeast expression system microsome (purchased from Sumitomo Chemical Co., Ltd.) were added.
Incubation was performed for 10 minutes at 37° C. Subsequently, aqueous 12% perchloric acid solution (50 μL) was added, to thereby stop the reaction.
After the reaction was stopped, an internal standard substance (I.S.) methyl p-hydroxybenzoate (100 μg/ mL, 50 μL), and diethyl ether (2 mL) were added. The mixture was shaken for 10 minutes, followed by centrifugation at 3,000 rpm for 10 minutes. The organic layer was separated, and the solvent was removed under a nitrogen gas at 40° C. The residue was dissolved in a 200 μL mobile phase, and the mixture was subjected to analysis by high performance liquid chromatography (HPLC).
In order to generate a calibration curve, the general procedure of the above process was repeated by use of 4′-hydroxymephenytoin solution instead of the S-(+)-mephenytoin solution. Quantitation was performed on the basis of the peak area ratio of 4′-hydroxymephenytoin to I.S. The amount of 4′-hydroxymephenytoin generated in the control sample was compared with that generated in the present of a test compound, and the results of comparison were used as an activity index.
HPLC was performed under the conditions described below (HPLC conditions A or HPLC conditions B).
On to `COc1c(OCCOCC(F)(F)F)ccnc1C[S+]([O-])c1nc2ccccc2[nH]1` (single isomer, unassigned; (+)) [Example 3(2), (+)-2-{3-methoxy-4-[2-(2,2,2-trifluoroethoxy)ethoxy]pyridin-2-yl-methylsulfinyl}-1H-benzimidazole], for which the activity at 10 min, 10 µM amounted to 98.3%.
Under `COc1c(OCCCC(F)(F)F)ccnc1C[S+]([O-])c1nc2ccccc2[nH]1` (single isomer, unassigned; (-)) [Example 6(1), (−)-2-[3-methoxy-4-(4,4,4-trifluorobutoxy)pyridin-2-yl-methanesulfinyl]-1H-benzimidazole] stands 66.4%.
On to `[O-][S+](Cc1cc(OCCCC(F)(F)F)ccn1)c1nc2ccccc2[nH]1` (single isomer, unassigned; (-)) [Example 10(2), (−)-2-[4-(4,4,4-trifluorobutoxy)pyridin-2-yl-methanesulfinyl]-1H-benzimidazole], for which the activity at 10 min, 10 µM came to 89.4%.
Under `[O-][S+](Cc1cc(OCCOCC(F)(F)F)ccn1)c1nc2ccccc2[nH]1` (single isomer, unassigned; (-)) [Example 13(3), (−)-2-{4-[2-(2,2,2-trifluoroethoxy)ethoxy]pyridin-2-yl-methanesulfinyl}-1H-benzimidazole] stands 98.6%; under `COc1c(OCCCC(F)(F)F)ccnc1C[S+]([O-])c1nc2ccccc2[nH]1` (stereo not drawn) [Example 1(2), 2-[3-methoxy-4-(4,4,4-trifluorobutoxy)pyridin-2-yl-methylsulfinyl]-1H-benzimidazole], 71.2%.
Under `COc1c(OCCOCC(F)(F)F)ccnc1C[S+]([O-])c1nc2ccccc2[nH]1` (stereo not drawn) [Example 2(2), 2-{3-methoxy-4-[2-(2,2,2-trifluoroethoxy)ethoxy]pyridin-2-yl-methylsulfinyl}-1H-benzimidazole] stands 66.5%; under `[O-][S+](Cc1cc(OCCCC(F)(F)F)ccn1)c1nc2ccccc2[nH]1` (stereo not drawn) [Example 9(3), 2-[4-(4,4,4-trifluorobutoxy)pyridin-2-yl-methanesulfinyl]-1H-benzimidazole], 76.1%; under `COc1ccc2nc([S@@+]([O-])Cc3ncc(C)c(OC)c3C)[nH]c2c1` [esomeprazole, reference compound], 35.4%.
For the compound `Cc1c(OCC(F)(F)F)ccnc1C[S+]([O-])c1nc2ccccc2[nH]1` (stereo not drawn) [lansoprazole, reference compound], the activity at 10 min, 10 µM was determined as 8.7%.
Consider `COc1ccc2[nH]c([S+]([O-])Cc3ncc(C)c(OC)c3C)nc2c1` (stereo not drawn) [omeprazole, reference compound], for which the activity at 10 min, 10 µM came to 18.4%.
Turning to `COc1ccnc(C[S+]([O-])c2nc3ccc(OC(F)F)cc3[nH]2)c1OC` (stereo not drawn) [pantoprazole, reference compound], the activity at 10 min, 10 µM came to 33.1%.
Under `COCCCOc1ccnc(C[S+]([O-])c2nc3ccccc3[nH]2)c1C` (stereo not drawn) [rabeprazole, reference compound] stands 39.8%.
